Laboratory results reported in patent US12227512B2, “Benzimidazoles and methods of using same” (priority 2019, dated 2025).
Like-named read-outs stand apart in the source and are kept apart here.

Assays:
[1] = test system: Rift Valley Fever Virus (RVFV); assay: microbe, parasite or virus in culture; type: cell-based
UW-426 (Hh subcategory) = assay: MTT assay, Medulloblastoma cell line; type: cell-based; conditions: UW426
Method: (§1) The EC50 values shown below in Table 9 were determined for Isis-11 (E2) by MTT assay in the Medulloblastoma cell lines as indicated.

Shh-NPD (Hh subcategory) = assay: MTT assay, Medulloblastoma cell line; type: cell-based
Method: as §1

SARS-CoV-2 [2] = assay: microbe, parasite or virus in culture; conditions: Severe acute respiratory syndrome coronavirus 2, Vero C1008, read-out: EC50, inhibition of cell death
SARS-CoV-2 [3] = conditions: infected Vero cells, 24 hours post-infection, Western blot
[4] = test system: Puerto Rica strain of infectious Zika virus; assay: microbe, parasite or virus in culture; type: cell-based; conditions: Vero
MB002 cells = assay: MTT assay, cell proliferation; type: cell-based
[5] = test system: SUFU-KO-Light cells expressing Gli-luciferase; assay: Dose-effect curves, dual-Glo luciferase, Compusyn; type: cell-based
[6] = Maximum tolerated dose (MTD) in mice; type: in vivo; conditions: AG129 mice; for Alive/total / MDD ± SD (average day of death) / Mean wt. change (g) ± SD: q 3 d × 3; for Alive/total / MDD ± SD (average day of death): 14 days; for Mean wt. change (g) ± SD: weight on 0 and 2 days post-initial treatment
Method: Without wishing to be bound by theory, the purpose of this study is to further identify the MTD and dosing frequency that can be used for Isis-11 (E2) in future antiviral efficacy studies.
Animals: 21 AG129 mice produced by an in-house colony were used. Groups of animals were assigned by weight to experimental groups and individually marked with ear tags.
Test agent: Isis-11 (E2) was provided by University of Utah for testing in the mouse model.
[…] Additional treatments were administered at various time points. Mice were monitored for mortality until 14 days post-initial treatment (dpi). Individual weights were measured daily 0-10 dpi and on 14 dpi.
Statistical analysis: Survival data were analyzed using the Wilcoxon log-rank survival analysis and all other statistical analyses were done using one-way ANOVA using a Bonferroni group comparison (Prism 5, GraphPad Software, Inc.).

[7] = test system: Zika virus, Dengue, Yellow Fever Virus, West Nile Virus; assay: organism not typed; type: cell-based; conditions: read-out: EC50, viral replication
[8] = test system: Gli-luciferace activity in the SUFU-KO-light cells; assay: SUFU-KO-Light assay, inhibition of Gli-luciferase activity; type: cell-based; conditions: read-out: IC50 (μM) SUFU-KO-Light; inhibition of Gli-luciferase activity; listed as Isis-11 (−isomer/E2)
From the text: IC50 SUFO-KO-Light values are for inhibition of Gli-luciferace activity in the SUFU-KO-light cells developed by the James Chen laboratory at Stanford University.

[9] = test system: Raji (Burkitt Lymphoma cell line); assay: Raji cell viability / proliferation; conditions: Homo sapiens, read-out: IC50, Raji cell proliferation
[10] = Mouse PK evaluation, plasma, IV; conditions: CD-1 mice; for AUC(0-inf): AUCInf; for MRT inf: MRTInf_obs
[11] = CD-1, mouse, in vivo, iv, 3 mg/kg, Mean, 3 mg/kg IV
[12] = CD-1, mouse, in vivo, iv, 3 mg/kg, Mouse 1, 3 mg/kg IV
[13] = CD-1, mouse, in vivo, iv, 3 mg/kg, Mouse 2, 3 mg/kg IV

For `CN(C)CCCn1c(N)nc2ccc3c(c21)CC(CN(C)C)O3` (single isomer, unassigned) [Compound E2], the “activity relative to BCX4430 against RVFV” value [1] was 92 fold, the EC50 ([1]; Rift Valley fever virus) was 450 nM and the EC50 (UW-426 (Hh subcategory)) was 105 nM. For the same molecule, the EC50 (Shh-NPD (Hh subcategory)) was 720 nM, the EC50 (SARS-CoV-2 [2]) was 142 nM and the “SARS-CoV-2 nucleocapsid protein levels” value (SARS-CoV-2 [3]) was “dose-dependent reduction of viral protein”. It also gave an EC50 [4] of 80 nM, an EC50 (MB002 cells; MB002) of 430 nM and an IC50 (MB002 cells; MB002, read-out: Dose E2) of 320 nM. For the same molecule, the EC50 ([5]; read-out: Dose E2) was 63.5 nM, the EC50 ([5]; read-out: EC50 as single agent) was 60 nM and the Alive/total ([6]; 1.0 mg/kg/d) was 3/3. The “MDD ± SD (average day of death)” value ([6]; 1.0 mg/kg/d) was >14.0 ± 0.0 days, the “Mean wt. change (g) ± SD” value ([6]; 1.0 mg/kg/d) was -1.2 ± 0.8 g and the tolerability ([6]; 3.2 mg/kg eod or q3d) was “well-tolerated”. The “mortality and weight loss” value ([6]; 3.2 mg/kg i.p.) was “no mortality or weight loss”, the Alive/total ([6]; 3.2 mg/kg/d) was 3/3 and the “MDD ± SD (average day of death)” value ([6]; 3.2 mg/kg/d) was >14.0 ± 0.0 days. The “Mean wt. change (g) ± SD” value ([6]; 3.2 mg/kg/d) was -0.1 ± 0.8 g, the “mortality (animals succumbing to toxicity)” value ([6]; 10 mg/kg i.p., eod or q3d) was 2 of 5 and the body weight ([6]; 10 mg/kg i.p., between 0 and 14 days after initial treatment) was “some transient weight loss, but an overall weight gain”. For the same molecule, the mortality ([6]; 32 mg/kg i.p., eod for 4 treatments or q3d for 3 treatments) was “all succumbed”, the body weight ([6]; 32 mg/kg i.p., eod or q3d) was “weight loss” and the “tolerability, second study” value ([6]; 3.2 or 1.0 mg/kg/d once every third day) was “well-tolerated with no indication of toxicity”. For the same molecule, the tolerability ([6]; 10 or 32 mg/kg, eod or q3d) was “toxic”, the “toxicity, initial study” value ([6]; administered bid, once a day at total daily doses of 32, 10, or 3.2 mg/kg/d) was “substantial toxicity” and the MTD at 14 days ([6]; mouse, in vivo, ip) was 3.2 mg/kg. For the same molecule, the EC50 [7] was 290 to 320 nM, the IC50 [8] was 0.1 µM and the IC50 [9] was 200 nM. For the same molecule, the “AUC_%Extrap_obs, Mean” value ([10]; 3 mg/kg IV) was 22.3%, the “AUC_%Extrap_obs, Mouse 1” value ([10]; 3 mg/kg IV) was 10.4% and the “AUC_%Extrap_obs, Mouse 2” value ([10]; 3 mg/kg IV) was 18.9%. The “AUC_%Extrap_obs, Mouse 3” value ([10]; 3 mg/kg IV) was 37.6%, the “AUClast, Mean” value ([10]; 3 mg/kg IV) was 439 ng·h/mL and the “AUClast, Mouse 1” value ([10]; 3 mg/kg IV) was 472 ng·h/mL. The “AUClast, Mouse 2” value ([10]; 3 mg/kg IV) was 360 ng·h/mL, the “AUClast, Mouse 3” value ([10]; 3 mg/kg IV) was 487 ng·h/mL and the “AUClast/D, Mean” value ([10]; 3 mg/kg IV) was 146. The “AUClast/D, Mouse 1” value ([10]; 3 mg/kg IV) was 157, the “AUClast/D, Mouse 2” value ([10]; 3 mg/kg IV) was 120 and the “AUClast/D, Mouse 3” value ([10]; 3 mg/kg IV) was 162. For the same molecule, the “C0, Mean” value ([10]; 3 mg/kg IV) was 794 ng/mL, the “C0, Mouse 1” value ([10]; 3 mg/kg IV) was 861 ng/mL and the “C0, Mouse 2” value ([10]; 3 mg/kg IV) was 801 ng/mL. The “C0, Mouse 3” value ([10]; 3 mg/kg IV) was 720 ng/mL, the “Cl_obs, Mean” value ([10]; 3 mg/kg IV) was 91 mL/min/kg and the “Cl_obs, Mouse 1” value ([10]; 3 mg/kg IV) was 95.0 mL/min/kg. The “Cl_obs, Mouse 2” value ([10]; 3 mg/kg IV) was 113 mL/min/kg, the “Cl_obs, Mouse 3” value ([10]; 3 mg/kg IV) was 64.1 mL/min/kg and the “Vss_obs, Mean” value ([10]; 3 mg/kg IV) was 71.1 L/kg. For the same molecule, the “Vss_obs, Mouse 1” value ([10]; 3 mg/kg IV) was 43.7 L/kg, the “Vss_obs, Mouse 2” value ([10]; 3 mg/kg IV) was 82.5 L/kg and the “Vss_obs, Mouse 3” value ([10]; 3 mg/kg IV) was 87.0 L/kg. For the same molecule, the “Plasma concentration, Mean” value ([10]; 3 mg/kg IV, 0.083 h) was 457 ng/mL, the “Plasma concentration, Mouse 1” value ([10]; 3 mg/kg IV, 0.083 h) was 445 ng/mL and the “Plasma concentration, Mouse 2” value ([10]; 3 mg/kg IV, 0.083 h) was 452 ng/mL. The “Plasma concentration, Mouse 3” value ([10]; 3 mg/kg IV, 0.083 h) was 473 ng/mL, the “Plasma concentration, Mean” value ([10]; 3 mg/kg IV, 0.25 h) was 155 ng/mL and the “Plasma concentration, Mouse 1” value ([10]; 3 mg/kg IV, 0.25 h) was 118 ng/mL. The “Plasma concentration, Mouse 2” value ([10]; 3 mg/kg IV, 0.25 h) was 143 ng/mL, the “Plasma concentration, Mouse 3” value ([10]; 3 mg/kg IV, 0.25 h) was 203 ng/mL and the “Plasma concentration, Mean” value ([10]; 3 mg/kg IV, 0.5 h) was 98 ng/mL. For the same molecule, the “Plasma concentration, Mouse 1” value ([10]; 3 mg/kg IV, 0.5 h) was 158 ng/mL, the “Plasma concentration, Mouse 2” value ([10]; 3 mg/kg IV, 0.5 h) was 60.2 ng/mL and the “Plasma concentration, Mouse 3” value ([10]; 3 mg/kg IV, 0.5 h) was 75.5 ng/mL. The “Plasma concentration, Mean” value ([10]; 3 mg/kg IV, 1 h) was 51.1 ng/mL, the “Plasma concentration, Mouse 1” value ([10]; 3 mg/kg IV, 1 h) was 64.0 ng/mL and the “Plasma concentration, Mouse 2” value ([10]; 3 mg/kg IV, 1 h) was 42.7 ng/mL. The “Plasma concentration, Mouse 3” value ([10]; 3 mg/kg IV, 1 h) was 46.5 ng/mL, the “Plasma concentration, Mean” value ([10]; 3 mg/kg IV, 2 h) was 27.2 ng/mL and the “Plasma concentration, Mouse 1” value ([10]; 3 mg/kg IV, 2 h) was 31.9 ng/mL. The “Plasma concentration, Mouse 2” value ([10]; 3 mg/kg IV, 2 h) was 26.8 ng/mL, the “Plasma concentration, Mouse 3” value ([10]; 3 mg/kg IV, 2 h) was 22.8 ng/mL and the “Plasma concentration, Mean” value ([10]; 3 mg/kg IV, 4 h) was 19.0 ng/mL. The “Plasma concentration, Mouse 1” value ([10]; 3 mg/kg IV, 4 h) was 25.4 ng/mL, the “Plasma concentration, Mouse 2” value ([10]; 3 mg/kg IV, 4 h) was 11.7 ng/mL and the “Plasma concentration, Mouse 3” value ([10]; 3 mg/kg IV, 4 h) was 19.8 ng/mL. The “Plasma concentration, Mean” value ([10]; 3 mg/kg IV, 8 h) was 8.9 ng/mL, the “Plasma concentration, Mouse 1” value ([10]; 3 mg/kg IV, 8 h) was 8.79 ng/mL and the “Plasma concentration, Mouse 2” value ([10]; 3 mg/kg IV, 8 h) was 7.76 ng/mL. The “Plasma concentration, Mouse 3” value ([10]; 3 mg/kg IV, 8 h) was 10.2 ng/mL, the “Plasma concentration, Mean” value ([10]; 3 mg/kg IV, 24 h) was 6.9 ng/mL and the “Plasma concentration, Mouse 1” value ([10]; 3 mg/kg IV, 24 h) was 4.57 ng/mL. The “Plasma concentration, Mouse 2” value ([10]; 3 mg/kg IV, 24 h) was 4.10 ng/mL, the “Plasma concentration, Mouse 3” value ([10]; 3 mg/kg IV, 24 h) was 12.1 ng/mL and the AUC(0-inf) [10, 11] was 485 ng·h/mL. It also gave an AUC(0-inf) [10, 12] of 526 ng·h/mL, an AUC(0-inf) [10, 13] of 444 ng·h/mL and an MRT inf [10, 11] of 9.9 h. It also gave an MRT inf [10, 12] of 7.67 h, an MRT inf [10, 13] of 12.2 h and a half-life ([10]; CD-1, mouse, in vivo, iv, 3 mg/kg, T1/2, Mouse 2, 3 mg/kg IV) of 14.2 h.
